Experimental data: ChEMBL document CHEMBL5150000, “Insights on Dengue and Zika NS5 RNA-dependent RNA polymerase (RdRp) inhibitors” (Eur J Med Chem, 2021)

Tests used:
Zika virus [1] = experiment: Antiviral activity against Zika virus infected in African green monkey Vero cells assessed as reduction in viral replication incubated for 24 hrs; type: functional, organism-based
dengue virus type 2 [2] = experiment: Antiviral activity against DENV-2 RNA-dependent RNA polymerase infected in human Huh-7 cells assessed as reduction in viral replication by RT-PCR analysis; type: functional, organism-based
Zika virus [3] = experiment: Antiviral activity against Zika virus SMGC-1 infected in human Huh-7 cells assessed as reduction in viral titer; type: functional, organism-based; settings: SMGC-1, Huh-7
NS5 [4] = target: T1, NS5 (Zika virus, UniProt A0A143MHK7); experiment: Inhibition of Zika virus wild type RNA-dependent RNA polymerase using ATP as substrate
[5] = target: Nonstructural protein 5 (Dengue virus) (UniProt V5TFZ2); experiment: Binding affinity to DENV-3 NS5 assessed as gibbs free energy change; settings: dengue virus type 3
[6] = Cytotoxicity against African green monkey Vero cells; type: toxicity, cell-based; settings: chlorocebus sabaeus
Dengue virus = experiment: Antiviral activity against DENV NS5/RNA-dependent RNA polymerase; type: functional, organism-based
NS5 [7] = target: T1, NS5; experiment: Inhibition of Zika virus RNA-dependent RNA polymerase activity
[8] = Binding affinity to DENV RNA-dependent RNA polymerase assessed as dissociation constant; parameters: species or system Dengue virus
Nonstructural protein 5 [9] = target: T2, Nonstructural protein 5 (Dengue virus, UniProt V5TFZ2); experiment: Inhibition of DENV-4 NS5; parameters: species or system dengue virus type 4
dengue virus type 4 [10] = experiment: Binding affinity to DENV-4 RNA-dependent RNA polymerase assessed as change in enthalpy by ITC analysis
[11] = Binding affinity to DENV-3 RNA-dependent RNA polymerase assessed as dissociation constant incubated for 40 sec by surface plasmon resonance analysis; parameters: species or system dengue virus type 3
[12] = Inhibition of DENV-3 RNA-dependent RNA polymerase; parameters: species or system dengue virus type 3
Vero = experiment: Inhibition of DENV-2 RNA-dependent RNA polymerase in African green monkey Vero cells measured for 24 to 72 hrs relative to control; type: cell-based; settings: dengue virus type 2, time 24-72 hrs, dose or concentration not given here
NS5 (Zika virus) = NS5 (Zika virus) (UniProt A0A143MHK7); experiment: Inhibition of Zika virus RNA-dependent RNA polymerase relative to control; settings: concentration not given here
[13] = Cytotoxicity against hamster BHK-21 cells; type: toxicity, cell-based, Mesocricetus auratus
[14] = Inhibition of DENV RNA-dependent RNA polymerase in hamster BHK-21 cells; type: cell-based, Dengue virus
dengue virus type 4 [15] = experiment: Antiviral activity against DENV-4 RNA-dependent RNA polymerase infected in African green monkey Vero cells assessed as reduction in viral replication incubated for 2 days by qRT-PCR analysis; type: functional, organism-based; settings: 48 h
dengue virus type 1 = experiment: Antiviral activity against DENV-1 RNA-dependent RNA polymerase infected in African green monkey Vero cells assessed as reduction in viral replication incubated for 2 days by qRT-PCR analysis; type: functional, organism-based; settings: 48 h
dengue virus type 2 [16] = experiment: Antiviral activity against DENV-2 RNA-dependent RNA polymerase infected in African green monkey Vero cells assessed as reduction in viral replication incubated for 2 days by qRT-PCR analysis; type: functional, organism-based; settings: 48 h
dengue virus type 3 = experiment: Antiviral activity against DENV-3 RNA-dependent RNA polymerase infected in African green monkey Vero cells assessed as reduction in viral replication incubated for 2 days by qRT-PCR analysis; type: functional, organism-based; settings: 48 h
[17] = Inhibition of DENV RNA-dependent RNA polymerase activity; parameters: species or system Dengue virus
Genome polyprotein = Genome polyprotein (dengue virus type 2, UniProt P29990); experiment: Inhibition of DENV-2 DENV2 NS2B-NS3
Nonstructural protein 5 [18] = target: T2, Nonstructural protein 5; experiment: Inhibition of DENV NS5/RNA-dependent RNA polymerase

T1 sequence (A0A143MHK7 whole entry): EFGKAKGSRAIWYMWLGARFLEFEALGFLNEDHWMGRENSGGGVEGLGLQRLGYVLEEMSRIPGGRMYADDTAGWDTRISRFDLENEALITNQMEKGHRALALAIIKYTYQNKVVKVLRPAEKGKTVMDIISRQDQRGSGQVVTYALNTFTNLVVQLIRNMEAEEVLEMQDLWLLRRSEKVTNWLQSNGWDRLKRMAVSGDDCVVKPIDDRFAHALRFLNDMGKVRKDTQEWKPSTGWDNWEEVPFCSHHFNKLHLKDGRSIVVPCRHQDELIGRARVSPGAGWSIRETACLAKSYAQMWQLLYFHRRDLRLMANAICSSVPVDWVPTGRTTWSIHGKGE
Chain of NS5 (Zika virus) (A0A143MHK7 as listed by the source): as the sequence (A0A143MHK7 whole entry) above
Chain of Genome polyprotein (P29990 1346-1475 limits assumed): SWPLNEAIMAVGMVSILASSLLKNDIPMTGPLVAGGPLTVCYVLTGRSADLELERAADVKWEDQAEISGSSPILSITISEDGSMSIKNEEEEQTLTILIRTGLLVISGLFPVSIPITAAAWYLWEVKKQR
Chain of Genome polyprotein (P29990 1476-2093 limits assumed): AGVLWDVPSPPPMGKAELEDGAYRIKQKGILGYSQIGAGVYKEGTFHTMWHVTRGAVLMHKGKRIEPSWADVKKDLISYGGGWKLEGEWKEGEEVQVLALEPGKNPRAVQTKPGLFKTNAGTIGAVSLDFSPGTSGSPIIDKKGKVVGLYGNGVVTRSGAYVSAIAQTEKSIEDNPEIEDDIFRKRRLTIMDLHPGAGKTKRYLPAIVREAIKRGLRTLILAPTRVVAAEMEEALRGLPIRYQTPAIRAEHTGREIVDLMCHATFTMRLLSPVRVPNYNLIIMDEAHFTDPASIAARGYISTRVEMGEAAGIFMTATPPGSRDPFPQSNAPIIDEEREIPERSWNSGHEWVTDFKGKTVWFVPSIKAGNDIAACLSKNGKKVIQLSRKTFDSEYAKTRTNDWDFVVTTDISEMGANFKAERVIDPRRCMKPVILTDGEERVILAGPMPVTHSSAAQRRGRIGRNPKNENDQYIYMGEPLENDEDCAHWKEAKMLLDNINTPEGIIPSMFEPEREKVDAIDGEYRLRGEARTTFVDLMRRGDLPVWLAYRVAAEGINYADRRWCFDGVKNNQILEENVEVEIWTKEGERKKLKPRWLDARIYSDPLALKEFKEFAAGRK

Which EC50 (Zika virus [1]) does the source give for O=C(NCc1ccc(O)cc1)c1cc(-c2ccccc2)c(=O)n2c1sc1ccc(C3CCCCC3)cc12 here?
Its EC50 is 1000 nM.

And the EC50 (dengue virus type 2 [2])?
The EC50 was 1800 nM.

With CCNC(=O)Cn1cnc(NC(=O)c2cc(-c3ccc(C)cc3)nc3onc(C)c23)n1 as the compound, how does the EC50 (Zika virus [3]) read?
Its EC50 is 7.43 µM.

And the IC50 (NS5 [4])?
Its IC50 is 1130 nM.

And the deltaG [5]?
Its deltaG is -10.5 kcal/mol.

With CCCCC#CC#CC#CCCCCCCCC(=O)O as the compound, how does the CC50 [6] read?
The CC50 was 30 µM.

What about the IC50 (Dengue virus) of the same compound?
The IC50 was 2700 nM.

For C[C@@]1(O)[C@H](O)[C@@H](COP(=O)(O)OP(=O)(O)OP(=O)(O)O)O[C@H]1n1ccc2c(N)ncnc21, which IC50 (NS5 [7]) is on record?
The IC50 was 8.92 µM.

With O=C1N=C(SCC(=O)N2CCN(c3ccc(F)cc3)CC2)N=C2CCN(Cc3ccccc3)C[C@H]12 as the compound, how does the deltaG [5] read?
The deltaG was -6.43 kcal/mol.

Which IC50 (NS5 [7]) does the source give for C[C@@]1(O)[C@H](O)[C@@H](COP(=O)(O)OP(=O)(O)OP(=O)(O)O)O[C@H]1n1cnc2c(N)ncnc21 here?
Its IC50 is 5.26 µM.

Which Kd [8] does the source give for Cc1ccc(C2N(c3ccccc3)CC3=C(CC(C)(C)CC3=O)N2c2ccccc2)cc1 (configuration not stated) here?
The Kd was 900 nM.

With O=C(NCCO)c1cc(-c2ccccc2)c(=O)n2c1sc1ccc(C3CCCCC3)cc12 as the compound, how does the EC50 (Zika virus [1]) read?
Its EC50 is 1800 nM.

And the EC50 (dengue virus type 2 [2])?
Its EC50 is 1900 nM.

For COc1ccc(CC(=O)O)cc1-c1ccsc1, which IC50 (Nonstructural protein 5 [9]) is on record?
Its IC50 is 210 µM.

And the deltaH (dengue virus type 4 [10])?
The deltaH was -7.7 kcal/mol.

And the Kd [11]?
The Kd was 67 µM.

What about the IC50 [12] of the same compound?
Its IC50 is 205 nM.

With CC(C)[C@H](N)C(=O)OCC(CO)OCn1cnc2c(=O)[nH]c(N)nc21 (some centres not stated) as the compound, how does the inhibition (Vero) read?
Its inhibition is 10%.

For CO[C@@H]1[C@H](O)[C@@H](COP(=O)(O)OP(=O)(O)OP(=O)(O)O)O[C@H]1n1ccc(N)nc1=O, which inhibition (NS5 (Zika virus)) is on record?
The inhibition was 72.2%.

For C#Cc1c(C(N)=O)ncn1[C@@H]1O[C@H](CO)[C@@H](O)[C@H]1O, which CC50 [13] is on record?
The CC50 was 1240 nM.

And the IC50 [14]?
Its IC50 is 270 nM.

With C[C@@]1(O)[C@H](O)[C@@H](CO)O[C@H]1n1cc(F)c2c(N)ncnc21 as the compound, how does the EC50 (dengue virus type 4 [15]) read?
The EC50 was 870 nM.

And the EC50 (dengue virus type 1)?
Its EC50 is 960 nM.

What about the EC50 (dengue virus type 2 [16]) of the same compound?
The EC50 was 460 nM.

And the EC50 (dengue virus type 3)?
Its EC50 is 850 nM.

Which results are given for CCC(CC)COC(=O)[C@H](C)N[P@](=O)(OC[C@H]1O[C@@](C#N)(c2ccc3c(N)ncnn23)[C@H](O)[C@@H]1O)Oc1ccccc1?
IC50 [17]: 1400 nM; IC50 (NS5 [7]): 1.36 µM

With Cc1cn([C@H]2C=C[C@@H](CO)O2)c(=O)[nH]c1=O as the compound, how does the inhibition (Vero) read?
The inhibition was 11%.

For O=C(N[C@@H](Cc1ccc(O)cc1)C(=O)O)c1cc(-c2ccccc2)c(=O)n2c1sc1ccc(OC3CCCCC3)cc12, which IC50 (Genome polyprotein) is on record?
The IC50 was 9.61 µM.

With C#Cc1c(C#N)ncn1[C@@H]1O[C@H](CO)[C@@H](O)[C@H]1O as the compound, how does the CC50 [13] read?
Its CC50 is 3990 nM.

What about the IC50 [14] of the same compound?
The IC50 was 550 nM.
